Measurements taken from EP2931723B1, “NEW BICYCLIC COMPOUNDS AND THEIR USE AS ANTIBACTERIAL AGENTS AND -LACTAMASE INHIBITORS” (Fedora Pharmaceuticals Inc., priority 2012, dated 2014).

Columns and labels:
Assay in all cases: MIC, antibacterial and synergistic activity
Assay type in all cases: cell-based
E. coli JMI 10768 = E. coli JMI 10768 (CTX-M15 (Weak ESBL)); for MIC Aztreonam + inhibitor: Aztreonam + inhibitor at 4 µg/mL; for MIC Ceftazidime + inhibitor: Ceftazidime + inhibitor at 4 µg/mL; for MIC: Escherichia coli, JMI10768, substance alone
Description: (§1) In the Tables 10 - 12, compounds herein disclosed were tested in combination with various antibiotics against metallo β-lactamase producing bacteria. Table 3: Synergy of the inhibitor Ex. 1 (4 µg/mL) in combination with antibiotics

K. pneumo JMI 2699 = K. pneumo JMI 2699 (VIM-1, CTX-M3); for MIC Aztreonam + inhibitor: Aztreonam + inhibitor at 4 µg/mL; for MIC Ceftazidime + inhibitor: Ceftazidime + inhibitor at 4 µg/mL; for MIC Meropenem + inhibitor: Meropenem + inhibitor at 4 µg/mL; for MIC: substance alone, read-out: MIC
In short: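 Synergy testing: antibiotic MIC vs MBL-producing strains in presence of inhibitor, fixed 4 µg/mL.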

K. pneumo JMI 2673 = K. pneumo JMI 2673 (CTX-M14 (ESBL)); for MIC Aztreonam + inhibitor: Aztreonam + inhibitor at 4 µg/mL; for MIC Ceftazidime + inhibitor: Ceftazidime + inhibitor at 4 µg/mL; for MIC Meropenem + inhibitor: Meropenem + inhibitor at 4 µg/mL
In short: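 Compounds were evaluated together with various antibiotics to measure synergistic antibacterial activity. For each combination, the minimum inhibitory concentration of the antibiotic was recorded while the inhibitor was present at a constant 4 µg/mL.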

K. pneumo JMI 2674 = K. pneumo JMI 2674 (CTX-M15 (ESBL)); for MIC Aztreonam + inhibitor: Aztreonam + inhibitor at 4 µg/mL; for MIC Ceftazidime + inhibitor: Ceftazidime + inhibitor at 4 µg/mL; for MIC Meropenem + inhibitor: Meropenem + inhibitor at 4 µg/mL
In short: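 Antibacterial activity was assessed as minimum inhibitory concentrations against a β-lactamase-producing bacterial strain. Each test inhibitor was combined with an antibiotic, with the inhibitor held at a fixed 4 µg/mL, to determine whether it acted synergistically and restored the antibiotic's effect against the resistant organism.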

K. pneumo JMI 4088 = K. pneumo JMI 4088 (KPC-3 (Cpase)); for MIC Aztreonam + inhibitor: Aztreonam + inhibitor at 4 µg/mL; for MIC Ceftazidime + inhibitor: Ceftazidime + inhibitor at 4 µg/mL; for MIC Meropenem + inhibitor: Meropenem + inhibitor at 4 µg/mL
In short: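 Minimum inhibitory concentrations were measured for antibiotics given together with the test inhibitor, held at 4 µg/mL, against bacteria that produce β-lactamase. The purpose was to see whether the inhibitor restores or boosts antibacterial activity, that is, synergy with the antibiotic.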

E. coli JMI 10770 = E. coli JMI 10770 (CTX-M15 (Hyper ESBL)); for MIC Aztreonam + inhibitor: Aztreonam + inhibitor at 4 µg/mL; for MIC Ceftazidime + inhibitor: Ceftazidime + inhibitor at 4 µg/mL; for MIC Meropenem + inhibitor: Meropenem + inhibitor at 4 µg/mL
Description: as §1

E. coli JMI 10767 = E. coli JMI 10767 (Wt); for MIC Aztreonam + inhibitor: Aztreonam + inhibitor at 4 µg/mL; for MIC Ceftazidime + inhibitor: Ceftazidime + inhibitor at 4 µg/mL
Description: as §1

K.pneumo JMI 4109 = K.pneumo JMI 4109 (SHV-1, SHV-12); for MIC Aztreonam + inhibitor: Aztreonam + inhibitor at 4 µg/mL; for MIC Ceftazidime + inhibitor: Ceftazidime + inhibitor at 4 µg/mL; for MIC Meropenem + inhibitor: Meropenem + inhibitor at 4 µg/mL
In short: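 Antibacterial synergy was assessed by pairing each inhibitor compound, at a constant concentration of 4 µg/mL, with β-lactam antibiotics. The combinations were run against bacterial strains that produce β-lactamases, and the readout was the minimum inhibitory concentration of the antibiotic in the presence of the inhibitor.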

P. aerug JMI 2686 = P. aerug JMI 2686 (KPC-2 (Cpase)); for MIC Aztreonam + inhibitor: Aztreonam + inhibitor at 4 µg/mL; for MIC Ceftazidime + inhibitor: Ceftazidime + inhibitor at 4 µg/mL; for MIC Meropenem + inhibitor: Meropenem + inhibitor at 4 µg/mL
In short: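 This antibacterial synergy assay measured the minimum inhibitory concentration of antibiotics combined with the disclosed inhibitor compounds. The inhibitor was held at 4 µg/mL throughout. The aim was to see whether the added compound strengthened the antibiotic's action against the tested bacteria.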

Row | Structure (SMILES) | MIC Aztreonam + inhibitor (E. coli JMI 10768) | MIC Ceftazidime + inhibitor (E. coli JMI 10768) | MIC (E. coli JMI 10768) | MIC Aztreonam + inhibitor (K. pneumo JMI 2699) | MIC Ceftazidime + inhibitor (K. pneumo JMI 2699) | MIC Meropenem + inhibitor (K. pneumo JMI 2699) | MIC (K. pneumo JMI 2699) | MIC Aztreonam + inhibitor (K. pneumo JMI 2673) | MIC Ceftazidime + inhibitor (K. pneumo JMI 2673) | MIC Meropenem + inhibitor (K. pneumo JMI 2673) | MIC Aztreonam + inhibitor (K. pneumo JMI 2674) | MIC Ceftazidime + inhibitor (K. pneumo JMI 2674) | MIC Meropenem + inhibitor (K. pneumo JMI 2674) | MIC Aztreonam + inhibitor (K. pneumo JMI 4088) | MIC Ceftazidime + inhibitor (K. pneumo JMI 4088) | MIC Meropenem + inhibitor (K. pneumo JMI 4088) | MIC Aztreonam + inhibitor (E. coli JMI 10770) | MIC Ceftazidime + inhibitor (E. coli JMI 10770) | MIC Meropenem + inhibitor (E. coli JMI 10770) | MIC Aztreonam + inhibitor (E. coli JMI 10767) | other results
1 | O=C(NNC(=O)[C@H]1CC[C@H]2CN1C(=O)N2OS(=O)(=O)O)C1CC1 (stereo in doubt) [Ex. 7, (2R,5S)-N'-(cyclopropylcarbonyl)-7-oxo-6-(sulfooxy)-1,6-diazabicyclo[3.2.1]octane-2-carbohydrazide] | ≤0.062 µg/mL | 2 µg/mL | 16 µg/mL | ≤0.062 µg/mL | 0.5 µg/mL | 0.5 µg/mL | 16 µg/mL | ≤0.062 µg/mL | ≤0.25 µg/mL | ≤0.0312 µg/mL | ≤0.062 µg/mL | ≤0.25 µg/mL | 0.125 µg/mL | 0.125 µg/mL | 1 µg/mL | 1 µg/mL | ≤0.062 µg/mL | ≤0.25 µg/mL | ≤0.0312 µg/mL | ≤0.062 µg/mL | MIC Ceftazidime + inhibitor (E. coli JMI 10767): ≤0.25 µg/mL; MIC Aztreonam + inhibitor (K.pneumo JMI 4109): 0.125 µg/mL; MIC Ceftazidime + inhibitor (K.pneumo JMI 4109): ≤0.25 µg/mL; MIC Meropenem + inhibitor (K.pneumo JMI 4109): ≤0.0312 µg/mL; MIC Aztreonam + inhibitor (P. aerug JMI 2686): >4 µg/mL; MIC Ceftazidime + inhibitor (P. aerug JMI 2686): >16 µg/mL; MIC Meropenem + inhibitor (P. aerug JMI 2686): >2 µg/mL
2 | O=C(NNC(=O)[C@H]1CC[C@H]2CN1C(=O)N2OS(=O)(=O)O)C1CNC1 (stereo in doubt) [Ex. 9, (2R,5S)-N'-(azetidin-3-ylcarbonyl)-7-oxo-6-(sulfooxy)-1,6-diazabicyclo[3.2.1]octane-2-carbohydrazide] | ≤0.06 µg/mL | ≤0.25 µg/mL | > 16 µg/mL | 0.06 µg/mL | ≤0.25 µg/mL | 0.5 µg/mL | > 16 µg/mL | ≤0.06 µg/mL | ≤0.25 µg/mL | ≤0.03 µg/mL | 0.125 µg/mL | ≤0.25 µg/mL | 0.06 µg/mL | 0.5 µg/mL | ≤0.25 µg/mL | 0.06 µg/mL | ≤0.06 µg/mL | ≤0.25 µg/mL | ≤0.03 µg/mL | ≤0.06 µg/mL | MIC Ceftazidime + inhibitor (E. coli JMI 10767): ≤0.25 µg/mL; MIC Aztreonam + inhibitor (K.pneumo JMI 4109): ≤0.06 µg/mL; MIC Ceftazidime + inhibitor (K.pneumo JMI 4109): ≤0.25 µg/mL; MIC Meropenem + inhibitor (K.pneumo JMI 4109): ≤0.03 µg/mL; MIC Aztreonam + inhibitor (P. aerug JMI 2686): >4 µg/mL; MIC Ceftazidime + inhibitor (P. aerug JMI 2686): >16 µg/mL; MIC Meropenem + inhibitor (P. aerug JMI 2686): >2 µg/mL
3 | O=C(NO[C@H]1CCCNC1)[C@@H]1CC[C@@H]2CN1C(=O)N2OS(=O)(=O)O [Ex. 2, (2S,5R)-7-Oxo-N-[(3S)-piperidin-3-yloxy] -6-(sulfooxy)-1,6-diazabicyclo[3.2.1]octane-2-carboxamide] | ≤.062 µg/mL | ≤0.25 µg/mL | 4 µg/mL | ≤.062 µg/mL | ≤0.25 µg/mL | 0.062 µg/mL | 4 µg/mL | ≤.062 µg/mL | ≤0.25 µg/mL | ≤.031 µg/mL | 0.125 µg/mL | ≤0.25 µg/mL | 0.125 µg/mL | 0.5 µg/mL | ≤0.25 µg/mL | 0.062 µg/mL | ≤.062 µg/mL | ≤0.25 µg/mL | ≤.031 µg/mL | ≤.062 µg/mL | MIC Ceftazidime + inhibitor (E. coli JMI 10767): ≤0.25 µg/mL; MIC Aztreonam + inhibitor (K.pneumo JMI 4109): ≤.062 µg/mL; MIC Ceftazidime + inhibitor (K.pneumo JMI 4109): ≤0.25 µg/mL; MIC Meropenem + inhibitor (K.pneumo JMI 4109): ≤.031 µg/mL; MIC Aztreonam + inhibitor (P. aerug JMI 2686): >4 µg/mL; MIC Ceftazidime + inhibitor (P. aerug JMI 2686): 16 µg/mL; MIC Meropenem + inhibitor (P. aerug JMI 2686): >2 µg/mL
4 | CCC(=O)NNC(=O)[C@@H]1CC[C@@H]2CN1C(=O)N2OS(=O)(=O)O [Ex. 8, (2S,5R)-7-oxo-N'-propanoyl-6-(sulfooxy)-1,6-diazabicyclo[3.2.1]octane-2-carbohydrazide] | ≤0.062 µg/mL | ≤0.25 µg/mL | > 16 µg/mL | ≤0.062 µg/mL | ≤0.25 µg/mL | 0.125 µg/mL | > 16 µg/mL | ≤0.062 µg/mL | ≤0.25 µg/mL | ≤0.0312 µg/mL | ≤0.062 µg/mL | ≤0.25 µg/mL | 0.062 µg/mL | 0.125 µg/mL | 0.5 µg/mL | 0.5 µg/mL | ≤0.062 µg/mL | ≤0.25 µg/mL | ≤0.0312 µg/mL | ≤0.062 µg/mL | MIC Ceftazidime + inhibitor (E. coli JMI 10767): ≤0.25 µg/mL; MIC Aztreonam + inhibitor (K.pneumo JMI 4109): ≤0.062 µg/mL; MIC Ceftazidime + inhibitor (K.pneumo JMI 4109): ≤0.25 µg/mL; MIC Meropenem + inhibitor (K.pneumo JMI 4109): ≤0.0312 µg/mL; MIC Aztreonam + inhibitor (P. aerug JMI 2686): >4 µg/mL; MIC Ceftazidime + inhibitor (P. aerug JMI 2686): >16 µg/mL; MIC Meropenem + inhibitor (P. aerug JMI 2686): >2 µg/mL
5 | O=C(NO[C@H]1CCNC1)[C@@H]1CC[C@@H]2CN1C(=O)N2OS(=O)(=O)O [Ex. 1, (2S,5R)-7-Oxo-N-[(3S)-pyrrolidin-3-yloxy]-6-(sulfooxy)-1,6-diazabicyclo[3.2.1]octane-2-carboxamide] | ≤.062 µg/mL | ≤0.25 µg/mL | 8 µg/mL | 0.5 µg/mL | 16 µg/mL | 2 µg/mL | 8 µg/mL | ≤.062 µg/mL | ≤0.25 µg/mL | ≤.031 µg/mL | ≤.062 µg/mL | ≤0.25 µg/mL | 0.062 µg/mL | ≤.062 µg/mL | ≤0.25 µg/mL | 0.062 µg/mL | ≤.062 µg/mL | ≤0.25 µg/mL | ≤.031 µg/mL | ≤.062 µg/mL | MIC Ceftazidime + inhibitor (E. coli JMI 10767): ≤0.25 µg/mL; MIC Aztreonam + inhibitor (K.pneumo JMI 4109): ≤.062 µg/mL; MIC Ceftazidime + inhibitor (K.pneumo JMI 4109): ≤0.25 µg/mL; MIC Meropenem + inhibitor (K.pneumo JMI 4109): ≤.031 µg/mL; MIC Aztreonam + inhibitor (P. aerug JMI 2686): >4 µg/mL; MIC Ceftazidime + inhibitor (P. aerug JMI 2686): 16 µg/mL; MIC Meropenem + inhibitor (P. aerug JMI 2686): >2 µg/mL
